From the OligoGym collection come the findings set out here.

Where “and” joins values, the source holds several entries; their conditions need not be identical. Equal entries are not always repeated. HELM strings list units from the 5' end as sugar, base in round brackets, then linkage (d deoxyribose, r ribose, m 2'-O-methyl, p phosphodiester). Methylation of C is not given here. [moe] = 2'-O-(2-methoxyethyl) (MOE); [cEt] = constrained ethyl (cEt); [sp] = phosphorothioate linkage

The series concerns the target HBV. The settings on record: ASO.

In the case of “RNA1{[moe](T)[sp].[moe](T)[sp].[moe](T)[sp].[moe](A)[sp].d(T)[sp].d(G)[sp].d(C)[sp].d(C)[sp].d(T)[sp].d(A)[sp].d(C)[sp].d(A)[sp].d(G)[sp].[moe](C)[sp].[moe](C)[sp].[moe](T)}$$$$V2.0”, the target mRNA inhibition (HepG2, 0.07 µM) was 51% and 38%.

With “RNA1{[moe](G)[sp].[moe](C)[sp].[moe](A)[sp].[moe](T)[sp].d(A)[sp].d(G)[sp].d(C)[sp].d(A)[sp].d(G)[sp].d(C)[sp].d(A)[sp].d(G)[sp].d(G)[sp].[moe](A)[sp].[moe](T)[sp].[moe](G)}$$$$V2.0”, the target mRNA inhibition (HepG2, 0.07 µM) is 44% and 56%.

In the case of “RNA1{[moe](A)[sp].[moe](C)[sp].[moe](G)[sp].[moe](T)[sp].d(G)[sp].d(C)[sp].d(A)[sp].d(G)[sp].d(A)[sp].d(G)[sp].d(G)[sp].d(T)[sp].d(G)[sp].[moe](A)[sp].[moe](A)[sp].[moe](G)[sp].[moe](C)}$$$$V2.0”, the target mRNA inhibition (HepG2, 0.07 µM) is 62% and 57%.

As to “RNA1{[moe](A)[sp].[moe](A)[sp].[moe](G)[sp].[moe](C)[sp].d(G)[sp].d(A)[sp].d(A)[sp].d(G)[sp].d(T)[sp].d(G)[sp].d(C)[sp].d(A)[sp].d(C)[sp].[moe](A)[sp].[moe](C)[sp].[moe](G)}$$$$V2.0”, for the setting “HepG2, 0.07 µM”, the target mRNA inhibition was 68% and 62%. Same read-out and setting: as for “RNA1{[moe](T)[sp].[moe](A)[sp].[moe](T)[sp].[moe](G)[sp].[moe](C)[sp].d(C)[sp].d(T)[sp].d(A)[sp].d(C)[sp].d(A)[sp].d(G)[sp].d(C)[sp].d(C)[sp].d(T)[sp].[moe](C)[sp].[moe](C)}$$$$V2.0”, the figure is 47% and 42%. On the same count and under the same terms, the value for “RNA1{[moe](A)[sp].[moe](G)[sp].[moe](G)[sp].[moe](C)[sp].d(A)[sp].d(T)[sp].d(A)[sp].d(G)[sp].d(C)[sp].d(A)[sp].d(G)[sp].d(C)[sp].d(A)[sp].[moe](G)[sp].[moe](G)[sp].[moe](A)}$$$$V2.0” was 52% and 36%; that for “RNA1{[moe](G)[sp].[moe](C)[sp].[moe](A)[sp].d(T)[sp].d(A)[sp].d(G)[sp].d(C)[sp].d(A)[sp].d(G)[sp].d(C)[sp].d(A)[sp].d(G)[sp].d(G)[sp].[cEt](A)[sp].[cEt](T)[sp].[cEt](G)}$$$$V2.0” was 67% and 76%. Same read-out and setting: the value for “RNA1{[moe](C)[sp].[moe](G)[sp].d(T)[sp].d(G)[sp].d(C)[sp].d(A)[sp].d(G)[sp].d(A)[sp].d(G)[sp].d(G)[sp].d(T)[sp].[moe](G)[sp].[moe](A)[sp].[moe](A)[sp].[moe](G)[sp].[moe](C)}$$$$V2.0” was 51% and 60%; that for “RNA1{[moe](T)[sp].[moe](T)[sp].[moe](C)[sp].d(C)[sp].d(G)[sp].d(C)[sp].d(A)[sp].d(G)[sp].d(T)[sp].d(A)[sp].d(T)[sp].d(G)[sp].[moe](G)[sp].[moe](A)[sp].[moe](T)[sp].[moe](C)}$$$$V2.0” was 53% and 50%. In the case of “RNA1{[moe](G)[sp].[moe](C)[sp].[moe](A)[sp].d(G)[sp].d(T)[sp].d(A)[sp].d(T)[sp].d(G)[sp].d(G)[sp].d(A)[sp].d(T)[sp].d(C)[sp].d(G)[sp].[cEt](G)[sp].[cEt](C)[sp].[cEt](A)}$$$$V2.0”, the target mRNA inhibition runs as follows: (HepG2, 0.0092593 µM) 4%; (HepG2, 0.0277778 µM) 36%; (HepG2, 0.07 µM) 74% and 85%; (HepG2, 0.0833333 µM) 58%; (HepG2, 0.25 µM) 84%. Consider “RNA1{[moe](G)[sp].[moe](C)[sp].[moe](A)[sp].[moe](G)[sp].[moe](A)[sp].d(G)[sp].d(G)[sp].d(T)[sp].d(G)[sp].d(A)[sp].d(A)[sp].d(G)[sp].d(C)[sp].d(G)[sp].[moe](A)[sp].[moe](A)}$$$$V2.0”, for which the target mRNA inhibition (HepG2, 0.07 µM) is 63% and 58%.

As for “RNA1{[moe](G)[sp].[moe](A)[sp].[moe](G)[sp].[moe](G)[sp].d(C)[sp].d(A)[sp].d(T)[sp].d(A)[sp].d(G)[sp].d(C)[sp].d(A)[sp].d(G)[sp].d(C)[sp].[moe](A)[sp].[moe](G)[sp].[moe](G)}$$$$V2.0”, the target mRNA inhibition (HepG2, 0.07 µM) was 45% and 50%.
